Key:
human SCD5 = target: T1, human SCD5 (Homo sapiens, UniProt Q86SK9); assay: Growth inhibition of yeast strain expressing human SCD5 as sole desaturase (OLE1 deleted), OD600 readout; assay type: cell-based; conditions: yeast strain expressing human SCD5 as sole desaturase; growth (OD600) after 40 h at 30° C.; read-out: SCD5 IC50
T1 construct: expressed in transfected cells; host or cells: yeast strain with OLE1 deleted, plasmid-borne human SCD5 (selected in SD-Ura)
T1 sequence (Q86SK9 1-330): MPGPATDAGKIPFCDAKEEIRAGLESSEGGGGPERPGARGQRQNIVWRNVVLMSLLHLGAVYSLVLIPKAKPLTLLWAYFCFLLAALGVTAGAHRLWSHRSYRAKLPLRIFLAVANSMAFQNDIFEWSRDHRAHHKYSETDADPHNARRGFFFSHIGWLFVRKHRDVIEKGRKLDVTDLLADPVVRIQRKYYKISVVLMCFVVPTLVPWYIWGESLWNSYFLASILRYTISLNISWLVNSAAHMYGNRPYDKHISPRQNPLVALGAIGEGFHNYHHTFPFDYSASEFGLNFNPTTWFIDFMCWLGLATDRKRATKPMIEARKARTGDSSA

human SCD1 = target: T2, human SCD1 (Homo sapiens, UniProt O00767); assay: Growth inhibition of yeast strain expressing human SCD1 as sole desaturase (OLE1 deleted), OD600 readout; assay type: cell-based; conditions: yeast strain expressing human SCD1 as sole desaturase; growth (OD600) after 40 h at 30° C.; read-out: SCD1 IC50
T2 construct: expressed in transfected cells; host or cells: yeast strain with OLE1 deleted, plasmid-borne human SCD1 (selected in SD-Ura)
T2 sequence (O00767 1-359): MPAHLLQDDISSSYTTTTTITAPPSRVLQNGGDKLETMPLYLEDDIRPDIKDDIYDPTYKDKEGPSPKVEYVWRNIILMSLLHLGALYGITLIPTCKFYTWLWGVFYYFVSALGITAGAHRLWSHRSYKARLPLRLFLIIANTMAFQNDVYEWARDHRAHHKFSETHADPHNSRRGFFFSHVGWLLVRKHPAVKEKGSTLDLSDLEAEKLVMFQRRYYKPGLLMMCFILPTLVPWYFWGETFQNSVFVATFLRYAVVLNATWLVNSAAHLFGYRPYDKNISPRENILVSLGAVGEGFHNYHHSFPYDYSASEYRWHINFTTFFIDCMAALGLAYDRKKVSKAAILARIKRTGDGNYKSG

| SMILES | IC50 (human SCD5) | IC50 (human SCD1) |
| --- | --- | --- |
| O=C(Nc1ccc(Cc2cccc(F)c2)nn1)c1ccc(=O)n(C2CC2)n1 [Compound 178, 1-cyclopropyl-N-{6-[(3-fluorophenyl)methyl]pyridazin-3-yl}-6-oxo-1,6-dihydropyridazine-3-carboxamide] | 0.77 µM | 6.67 µM |
| CN1N=C(C(=O)Nc2ccc(Cc3ccc(F)c(Cl)c3)nn2)CCC1=O [Compound 179, N-(6-(3-chloro-4-fluorobenzyl)pyridazin-3-yl)-1-methyl-6-oxo-1,4,5,6-tetrahydropyridazine-3-carboxamide] | 1.03 µM | > 45 µM |
| Cn1nc(C(=O)Nc2ccc(Cc3ccc(F)c(Cl)c3)nn2)ccc1=O [Compound 180, N-(6-(3-chloro-4-fluorobenzyl)pyridazin-3-yl)-1-methyl-6-oxo-1,6-dihydropyridazine-3-carboxamide] | 0.91 µM | 6.02 µM |
| CN1N=C(C(=O)Nc2ccc(COc3cccc(Cl)c3)nn2)CCC1=O [Compound 181, N-(6-((3-chlorophenoxy)methyl)pyridazin-3-yl)-1-methyl-6-oxo-1,4,5,6-tetrahydropyridazine-3-carboxamide] | 1.22 µM | > 45 µM |
| Cn1cc(C(=O)Nc2ccc(Cc3cccc(Cl)c3)nn2)ccc1=O [Compound 183, N-(6-(3-chlorobenzyl)pyridazin-3-yl)-1-methyl-6-oxo-1,6-dihydropyridine-3-carboxamide] | 1.41 µM | 10.7 µM |
| CCn1cc(C(=O)Nc2ccc(Cc3cccc(Cl)c3)nn2)ccc1=O [Compound 184, N-(6-(3-chlorobenzyl)pyridazin-3-yl)-1-ethyl-6-oxo-1,6-dihydropyridine-3-carboxamide] | 28.9 µM | > 45 µM |
| CCn1nc(C(=O)Nc2ccc(Cc3cccc(Cl)c3)nn2)ccc1=O [Compound 185, N-(6-(3-chlorobenzyl)pyridazin-3-yl)-1-ethyl-6-oxo-1,6-dihydropyridazine-3-carboxamide] | 8.59 µM | > 45 µM |
| CN1N=C(C(=O)Nc2ccc(Cc3ccccc3)nn2)CCC1=O [Compound 186, N-(6-benzylpyridazin-3-yl)-1-methyl-6-oxo-1,4,5,6-tetrahydropyridazine-3-carboxamide] | 12.6 µM | > 45 µM |
| CN1N=C(C(=O)Nc2ccc(Cc3cccc(Br)c3)nn2)CCC1=O [Compound 191, N-(6-(3-bromobenzyl)pyridazin-3-yl)-1-methyl-6-oxo-1,4,5,6-tetrahydropyridazine-3-carboxamide] | 2.68 µM | > 45 µM |
| Cn1nc(C(=O)Nc2ncc(Cc3cccc(F)c3)s2)ccc1=O [Compound 202, N-(5-(3-fluorobenzyl)thiazol-2-yl)-1-methyl-6-oxo-1,6-dihydropyridazine-3-carboxamide] | 0.02 µM | 0.02 µM |
| CN1N=C(C(=O)Nc2ncc(Cc3ccccc3F)s2)CCC1=O [Compound 206, N-(5-(2-fluorobenzyl)thiazol-2-yl)-1-methyl-6-oxo-1,4,5,6-tetrahydropyridazine-3-carboxamide] | 2.51 µM | 3.36 µM |
| CN1N=C(C(=O)Nc2ncc(Cc3cccc(Cl)c3)s2)CCC1=O [Compound 207, N-(5-(3-chlorobenzyl)thiazol-2-yl)-1-methyl-6-oxo-1,4,5,6-tetrahydropyridazine-3-carboxamide] | 0.01 µM | 0.09 µM |
| CN1N=C(C(=O)Nc2ncc(Cc3cccc(C#N)c3)s2)CCC1=O [Compound 209, N-(5-(3-cyanobenzyl)thiazol-2-yl)-1-methyl-6-oxo-1,4,5,6-tetrahydropyridazine-3-carboxamide] | 2.45 µM | 1.69 µM |
| COc1cccc(Cc2cnc(NC(=O)c3ccc(=O)n(C)n3)s2)c1 [Compound 212, N-(5-(3-methoxybenzyl)thiazol-2-yl)-1-methyl-6-oxo-1,6-dihydropyridazine-3-carboxamide] | 0.04 µM | 0.15 µM |
| CC(c1cccc(F)c1)c1cnc(NC(=O)C2=NN(C)C(=O)CC2)s1 (centres unmarked) [Compound 214, N-(5-(1-(3-fluorophenyl)ethyl)thiazol-2-yl)-1-methyl-6-oxo-1,4,5,6-tetrahydropyridazine-3-carboxamide] | 1.75 µM | 14.5 µM |

Further lines, results first:

| IC50 (human SCD5) | IC50 (human SCD1) | SMILES |
| --- | --- | --- |
| 6.51 µM | > 45 µM | CN1N=C(C(=O)Nc2ccc(Cc3cccc(C4CC4)c3)nn2)CCC1=O [Compound 187, N-(6-(3-cyclopropylbenzyl)pyridazin-3-yl)-1-methyl-6-oxo-1,4,5,6-tetrahydropyridazine-3-carboxamide] |
| 0.19 µM | 4.4 µM | CN1N=C(C(=O)Nc2ccc(Cc3ccc(Cl)c(Cl)c3)nn2)CCC1=O [Compound 188, N-(6-(3,4-dichlorobenzyl)pyridazin-3-yl)-1-methyl-6-oxo-1,4,5,6-tetrahydropyridazine-3-carboxamide] |
| 5.07 µM | > 45 µM | Cn1cc(NC(=O)c2ccc(Cc3cccc(Cl)c3)nn2)ccc1=O [Compound 189, 6-(3-chlorobenzyl)-N-(1-methyl-6-oxo-1,6-dihydropyridin-3-yl)pyridazine-3-carboxamide] |
| 33 µM | > 45 µM | CN1N=C(NC(=O)c2ccc(Cc3cccc(Cl)c3)nn2)CCC1=O [Compound 190, 6-(3-chlorobenzyl)-N-(1-methyl-6-oxo-1,4,5,6-tetrahydropyridazin-3-yl)pyridazine-3-carboxamide] |
| 1.31 µM | 11.9 µM | CN1N=C(C(=O)Nc2ccc(Cc3ccc(F)c(Cl)c3)nn2)CCC1=O [Compound 192, N-(6-(3-chloro-4-fluorobenzyl)pyridazin-3-yl)-1-methyl-6-oxo-1,4,5,6-tetrahydropyridazine-3-carboxamide] |
| 1.54 µM | > 45 µM | CN1N=C(C(=O)Nc2ccc(Cc3cccc(C(F)(F)F)c3)nn2)CCC1=O [Compound 194, 1-methyl-6-oxo-N-(6-(3-(trifluoromethyl)benzyl)pyridazin-3-yl)-1,4,5,6-tetrahydropyridazine-3-carboxamide] |
| 2.31 µM | 15.9 µM | Cn1nc(C(=O)Nc2ccc(Cc3cccc(F)c3)nn2)ccc1=O [Compound 195, N-(6-(3-fluorobenzyl)pyridazin-3-yl)-1-methyl-6-oxo-1,6-dihydropyridazine-3-carboxamide] |
| 1.56 µM | 5.58 µM | Cn1nc(C(=O)Nc2ccc(Cc3cccc(Cl)c3)nn2)ccc1=O [Compound 196, N-(6-(3-chlorobenzyl)pyridazin-3-yl)-1-methyl-6-oxo-1,6-dihydropyridazine-3-carboxamide] |
| 0.37 µM | 2.75 µM | CN1N=C(C(=O)Nc2ccc(Cc3cccc(Cl)c3)nn2)CCC1=O [Compound 197, N-(6-(3-chlorobenzyl)pyridazin-3-yl)-1-methyl-6-oxo-1,4,5,6-tetrahydropyridazine-3-carboxamide] |
| 7.18 µM | > 45 µM | CN1N=C(C(=O)Nc2ccc(CC3CCCCC3)nn2)CCC1=O [Compound 198, N-(6-(cyclohexylmethyl)pyridazin-3-yl)-1-methyl-6-oxo-1,4,5,6-tetrahydropyridazine-3-carboxamide] |
| 5.8 µM | > 45 µM | CCn1nc(C(=O)Nc2ccc(Cc3cccc(F)c3)nn2)ccc1=O [Compound 199, 1-ethyl-N-(6-(3-fluorobenzyl)pyridazin-3-yl)-6-oxo-1,6-dihydropyridazine-3-carboxamide] |
| 27.9 µM | > 45 µM | COC(c1cccc(F)c1)c1cnc(NC(=O)C2=NN(C)C(=O)CC2)s1 (centres unmarked) [Compound 204, N-(5-((3-fluorophenyl)(methoxy)methyl)thiazol-2-yl)-1-methyl-6-oxo-1,4,5,6-tetrahydropyridazine-3-carboxamide] |
| 29.4 µM | > 45 µM | CN1N=C(C(=O)Nc2ncc(C(O)c3cccc(F)c3)s2)CCC1=O (centres unmarked) [Compound 205, N-(5-((3-fluorophenyl)(hydroxy)methyl)thiazol-2-yl)-1-methyl-6-oxo-1,4,5,6-tetrahydropyridazine-3-carboxamide] |
| 0.05 µM | 0.13 µM | CN1N=C(C(=O)Nc2ncc(Cc3ccc(F)cc3)s2)CCC1=O [Compound 208, N-(5-(4-fluorobenzyl)thiazol-2-yl)-1-methyl-6-oxo-1,4,5,6-tetrahydropyridazine-3-carboxamide] |
| 0.38 µM | 0.39 µM | CN1N=C(C(=O)Nc2ncc(Cc3ccc(Cl)cc3)s2)CCC1=O [Compound 213, N-(5-(4-chlorobenzyl)thiazol-2-yl)-1-methyl-6-oxo-1,4,5,6-tetrahydropyridazine-3-carboxamide] |
| 0.02 µM | 0.01 µM | CN1N=C(C(=O)Nc2ncc(Cc3cc(F)cc(Cl)c3)s2)CCC1=O [Compound 216, N-(5-(3-chloro-5-fluorobenzyl)thiazol-2-yl)-1-methyl-6-oxo-1,4,5,6-tetrahydropyridazine-3-carboxamide] |
